One assay has as its system NCI-H520. In words: relative viability (nuclei count vs DMSO), 5 days (fraction); higher = more cells survive. Particulars: first compound 0.08 µM. The essentials: (§1)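 Lung cancer cell lines in 1536-well plates got either a single drug or a fixed anchor-drug dose together with five library-drug doses (not always all listed) in √10 steps, by pin tool, on the day after seeding. Nuclei were counted after 5 days, and relative viability is the treated-to-vehicle ratio of nuclei counts. Values are medians of duplicate plates.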
As to `CCCCCCCCCCCC1=C(O)C(=O)C=C(O)C1=O` [Embelin] + Cc1nc(Nc2ncc(C(=O)Nc3c(C)cccc3Cl)s2)cc(N2CCN(CCO)CC2)n1 [Dasatinib] (partner 0.075 µM), the relative viability is 0.245.

The compound `CCCCCCCCCCCC1=C(O)C(=O)C=C(O)C1=O` [Embelin] + COc1cccc2cc(-c3nc([C@H]4CC[C@H](C(=O)O)CC4)n4ncnc(N)c34)[nH]c12 [OSI-027] (partner 0.5 µM) showed a relative viability of 0.227.

`CCCCCCCCCCCC1=C(O)C(=O)C=C(O)C1=O` [Embelin] + Nc1nc2[nH]cc(CCc3ccc(C(=O)N[C@@H](CCC(=O)O)C(=O)O)cc3)c2c(=O)[nH]1 [Pemetrexed] (partner 0.2 µM): the relative viability is 0.656.

The same assay, now with this note: first compound 0.8 µM.
Consider `CCCCCCCCCCCC1=C(O)C(=O)C=C(O)C1=O` [Embelin] + N=C(N)NC(=N)NCCc1ccccc1 [Phenformin] (partner 250 µM), for which the relative viability came to 0.352.

`CCCCCCCCCCCC1=C(O)C(=O)C=C(O)C1=O` [Embelin] + CCNC(=O)c1noc(-c2cc(C(C)C)c(O)cc2O)c1-c1ccc(CN2CCOCC2)cc1 [Luminespib] (partner 0.01 µM) had a relative viability of 0.29.

The compound `CCCCCCCCCCCC1=C(O)C(=O)C=C(O)C1=O` [Embelin] + Cc1nc(Nc2ncc(C(=O)Nc3c(C)cccc3Cl)s2)cc(N2CCN(CCO)CC2)n1 [Dasatinib] (partner 0.075 µM) yielded a relative viability of 0.188.

Compound `CCCCCCCCCCCC1=C(O)C(=O)C=C(O)C1=O` [Embelin] + COc1cccc2cc(-c3nc([C@H]4CC[C@H](C(=O)O)CC4)n4ncnc(N)c34)[nH]c12 [OSI-027] (partner 0.5 µM) yielded a relative viability of 0.319.

As to `CCCCCCCCCCCC1=C(O)C(=O)C=C(O)C1=O` [Embelin] + Nc1nc2[nH]cc(CCc3ccc(C(=O)N[C@@H](CCC(=O)O)C(=O)O)cc3)c2c(=O)[nH]1 [Pemetrexed] (partner 0.2 µM), the relative viability came to 0.852.

Staying with this assay, now noted: first compound 2.53 µM.
Take `CCCCCCCCCCCC1=C(O)C(=O)C=C(O)C1=O` [Embelin] + N=C(N)NC(=N)NCCc1ccccc1 [Phenformin] (partner 250 µM): the relative viability was 0.742.

Turning to `CCCCCCCCCCCC1=C(O)C(=O)C=C(O)C1=O` [Embelin] + CCNC(=O)c1noc(-c2cc(C(C)C)c(O)cc2O)c1-c1ccc(CN2CCOCC2)cc1 [Luminespib] (partner 0.01 µM), the relative viability came to 0.183.

Take `CCCCCCCCCCCC1=C(O)C(=O)C=C(O)C1=O` [Embelin] + Cc1nc(Nc2ncc(C(=O)Nc3c(C)cccc3Cl)s2)cc(N2CCN(CCO)CC2)n1 [Dasatinib] (partner 0.075 µM): the relative viability stood at 0.307.

Regarding `CCCCCCCCCCCC1=C(O)C(=O)C=C(O)C1=O` [Embelin] + COc1cccc2cc(-c3nc([C@H]4CC[C@H](C(=O)O)CC4)n4ncnc(N)c34)[nH]c12 [OSI-027] (partner 0.5 µM), the relative viability is 0.401.

`CCCCCCCCCCCC1=C(O)C(=O)C=C(O)C1=O` [Embelin] + Nc1nc2[nH]cc(CCc3ccc(C(=O)N[C@@H](CCC(=O)O)C(=O)O)cc3)c2c(=O)[nH]1 [Pemetrexed] (partner 0.2 µM) yielded a relative viability of 0.708.

The same assay, now with this note: first compound 8 µM.
`CCCCCCCCCCCC1=C(O)C(=O)C=C(O)C1=O` [Embelin] + N=C(N)NC(=N)NCCc1ccccc1 [Phenformin] (partner 250 µM) came in with a relative viability of 0.338.

In the case of `CCCCCCCCCCCC1=C(O)C(=O)C=C(O)C1=O` [Embelin] + CCNC(=O)c1noc(-c2cc(C(C)C)c(O)cc2O)c1-c1ccc(CN2CCOCC2)cc1 [Luminespib] (partner 0.01 µM), the relative viability was 0.235.

Turning to `CCCCCCCCCCCC1=C(O)C(=O)C=C(O)C1=O` [Embelin] + Cc1nc(Nc2ncc(C(=O)Nc3c(C)cccc3Cl)s2)cc(N2CCN(CCO)CC2)n1 [Dasatinib] (partner 0.075 µM), the relative viability came to 0.132.

Compound `CCCCCCCCCCCC1=C(O)C(=O)C=C(O)C1=O` [Embelin] + COc1cccc2cc(-c3nc([C@H]4CC[C@H](C(=O)O)CC4)n4ncnc(N)c34)[nH]c12 [OSI-027] (partner 0.5 µM) returned a relative viability of 0.238.

Take `CCCCCCCCCCCC1=C(O)C(=O)C=C(O)C1=O` [Embelin] + Nc1nc2[nH]cc(CCc3ccc(C(=O)N[C@@H](CCC(=O)O)C(=O)O)cc3)c2c(=O)[nH]1 [Pemetrexed] (partner 0.2 µM): the relative viability stood at 0.821.

For another assay, the system named is NCI-H522. Described as above. Particulars: first compound 0.08 µM. The essentials: as §1
Turning to `CCCCCCCCCCCC1=C(O)C(=O)C=C(O)C1=O` [Embelin] + N=C(N)NC(=N)NCCc1ccccc1 [Phenformin] (partner 250 µM), the relative viability worked out at 0.722.

In turn, `CCCCCCCCCCCC1=C(O)C(=O)C=C(O)C1=O` [Embelin] + CCNC(=O)c1noc(-c2cc(C(C)C)c(O)cc2O)c1-c1ccc(CN2CCOCC2)cc1 [Luminespib] (partner 0.01 µM) had a relative viability of 1.26.

As to `CCCCCCCCCCCC1=C(O)C(=O)C=C(O)C1=O` [Embelin] + Cc1nc(Nc2ncc(C(=O)Nc3c(C)cccc3Cl)s2)cc(N2CCN(CCO)CC2)n1 [Dasatinib] (partner 0.075 µM), the relative viability was 0.849.

Compound `CCCCCCCCCCCC1=C(O)C(=O)C=C(O)C1=O` [Embelin] + COc1cccc2cc(-c3nc([C@H]4CC[C@H](C(=O)O)CC4)n4ncnc(N)c34)[nH]c12 [OSI-027] (partner 0.5 µM) yielded a relative viability of 0.677.

`CCCCCCCCCCCC1=C(O)C(=O)C=C(O)C1=O` [Embelin] + Nc1nc2[nH]cc(CCc3ccc(C(=O)N[C@@H](CCC(=O)O)C(=O)O)cc3)c2c(=O)[nH]1 [Pemetrexed] (partner 0.2 µM) gave a relative viability of 0.901.

Still in this assay, the particulars now being: first compound 0.8 µM.
In the case of `CCCCCCCCCCCC1=C(O)C(=O)C=C(O)C1=O` [Embelin] + N=C(N)NC(=N)NCCc1ccccc1 [Phenformin] (partner 250 µM), the relative viability is 0.856.

Compound `CCCCCCCCCCCC1=C(O)C(=O)C=C(O)C1=O` [Embelin] + CCNC(=O)c1noc(-c2cc(C(C)C)c(O)cc2O)c1-c1ccc(CN2CCOCC2)cc1 [Luminespib] (partner 0.01 µM) gave a relative viability of 1.2.

In turn, `CCCCCCCCCCCC1=C(O)C(=O)C=C(O)C1=O` [Embelin] + Cc1nc(Nc2ncc(C(=O)Nc3c(C)cccc3Cl)s2)cc(N2CCN(CCO)CC2)n1 [Dasatinib] (partner 0.075 µM) displayed a relative viability of 0.914.

As for `CCCCCCCCCCCC1=C(O)C(=O)C=C(O)C1=O` [Embelin] + COc1cccc2cc(-c3nc([C@H]4CC[C@H](C(=O)O)CC4)n4ncnc(N)c34)[nH]c12 [OSI-027] (partner 0.5 µM), the relative viability turned out to be 0.714.

Take `CCCCCCCCCCCC1=C(O)C(=O)C=C(O)C1=O` [Embelin] + Nc1nc2[nH]cc(CCc3ccc(C(=O)N[C@@H](CCC(=O)O)C(=O)O)cc3)c2c(=O)[nH]1 [Pemetrexed] (partner 0.2 µM): the relative viability is 1.06.

The same assay, now with this note: first compound 2.53 µM.
In turn, `CCCCCCCCCCCC1=C(O)C(=O)C=C(O)C1=O` [Embelin] + N=C(N)NC(=N)NCCc1ccccc1 [Phenformin] (partner 250 µM) had a relative viability of 0.674.

The compound `CCCCCCCCCCCC1=C(O)C(=O)C=C(O)C1=O` [Embelin] + CCNC(=O)c1noc(-c2cc(C(C)C)c(O)cc2O)c1-c1ccc(CN2CCOCC2)cc1 [Luminespib] (partner 0.01 µM) gave a relative viability of 1.34.

Consider `CCCCCCCCCCCC1=C(O)C(=O)C=C(O)C1=O` [Embelin] + Cc1nc(Nc2ncc(C(=O)Nc3c(C)cccc3Cl)s2)cc(N2CCN(CCO)CC2)n1 [Dasatinib] (partner 0.075 µM), for which the relative viability turned out to be 1.02.

The record behind these values is the supplement of paper PMC10307832.
